Tested on: KRAS patient-derived spheroids with HUVEC/MSC, viability
Experiment: Anticancer human tumor 941728-121-R-J1-PDC patient-derived lung adenocarcinoma cell line growth inhibition [KRAS2]
Settings: for IC50: curve of first compound; for viability, T/C: stronger effect = lower value
Procedure, shortened: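 Combination screen of spheroid viability in tumor-cell co-cultures with endothelial (HUVEC) and mesenchymal stem cell stroma. Each agent was tested in half-log dilutions, topping at clinical Cmax or at 10 microM without a known Cmax.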

[1] = second compound 0.0316 µM, first compound 0.0316 µM
[2] = second compound 0.0316 µM, first compound 0.1 µM
[3] = second compound 0.0316 µM, first compound 0.316 µM
[4] = second compound 0.0316 µM, first compound 1 µM
[5] = second compound 0.0316 µM, first compound 3.16 µM
[6] = second compound 0.0316 µM, first compound 10 µM
[7] = second compound 0.1 µM, first compound 0.0316 µM
[8] = second compound 0.1 µM, first compound 0.1 µM
[9] = second compound 0.1 µM, first compound 0.316 µM
[10] = second compound 0.1 µM, first compound 1 µM
[11] = second compound 0.1 µM, first compound 3.16 µM
[12] = second compound 0.1 µM, first compound 10 µM
[13] = second compound 0.316 µM, first compound 0.0316 µM
[14] = second compound 0.316 µM, first compound 0.1 µM
[15] = second compound 0.316 µM, first compound 0.316 µM
[16] = second compound 0.316 µM, first compound 1 µM
[17] = second compound 0.316 µM, first compound 3.16 µM
[18] = second compound 0.316 µM, first compound 10 µM
[19] = second compound 1 µM, first compound 0.0316 µM
[20] = second compound 1 µM, first compound 0.1 µM
[21] = second compound 1 µM, first compound 0.316 µM
[22] = second compound 1 µM, first compound 1 µM
[23] = second compound 1 µM, first compound 3.16 µM
[24] = second compound 1 µM, first compound 10 µM
[25] = second compound 3.16 µM, first compound 0.0316 µM
[26] = second compound 3.16 µM, first compound 0.1 µM
[27] = second compound 3.16 µM, first compound 0.316 µM
[28] = second compound 3.16 µM, first compound 1 µM
[29] = second compound 3.16 µM, first compound 3.16 µM
[30] = second compound 3.16 µM, first compound 10 µM
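Further: spheroids exposed to agents for seven days before readout.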

SMILES | IC50 (second compound 0.0316 µM) [nM] | IC50 (second compound 0.1 µM) [nM] | IC50 (second compound 0.316 µM) [nM] | IC50 (second compound 1 µM) [nM] | IC50 (second compound 3.16 µM) [nM] | viability, T/C [1] [%] | viability, T/C [2] [%] | viability, T/C [3] [%] | viability, T/C [4] [%] | viability, T/C [5] [%] | viability, T/C [6] [%] | viability, T/C [7] [%] | viability, T/C [8] [%] | viability, T/C [9] [%] | viability, T/C [13] [%] | viability, T/C [14] [%] | viability, T/C [19] [%] | viability, T/C [20] [%] | viability, T/C [25] [%] | viability, T/C [26] [%] | other results
COc1cc(Nc2ncc3c(n2)-c2ccc(Cl)cc2C(c2c(F)cccc2OC)=NC3)ccc1C(=O)O + C=CC(=O)N1CCN(c2nc(OCC3CCCN3C)nc3c2CCN(c2cccc4cccc(C)c24)C3)CC1CC#N | < 31.6 | < 31.6 | < 31.6 | < 31.6 | < 31.6 | 32.1 | 29.5 | 26.1 | 26.3 | 22.9 | 20.3 | 33.6 | 30.4 | 25.6 | 30.4 | 26.1 | 26.5 | 26.3 | 0.53 | 0.41 | viability, T/C [10]: 25.9%; viability, T/C [11]: 22.8%; viability, T/C [12]: 20.9%; viability, T/C [15]: 26.8%; viability, T/C [16]: 26.1%; viability, T/C [17]: 22%; viability, T/C [18]: 20.3%; viability, T/C [21]: 27.1%; viability, T/C [22]: 22.9%; viability, T/C [23]: 23%; viability, T/C [24]: 16.5%; viability, T/C [27]: 0.87%; viability, T/C [28]: 0.19%; viability, T/C [29]: 0.26%; viability, T/C [30]: 0.18%
COc1cc2nccc(Oc3ccc(NC(=O)C4(C(=O)Nc5ccc(F)cc5)CC4)cc3)c2cc1OC + C=CC(=O)N1CCN(c2nc(OCC3CCCN3C)nc3c2CCN(c2cccc4cccc(C)c24)C3)CC1CC#N | < 31.6 | < 31.6 | < 31.6 | < 31.6 | < 31.6 | 17.9 | 18 | 15.1 | 13.3 | 7.03 | 7.62 | 14.3 | 15.8 | 15.3 | 15.4 | 16.3 | 14.2 | 14.5 | 0.1 | 0.12 | viability, T/C [10]: 13.3%; viability, T/C [11]: 5.66%; viability, T/C [12]: 6.73%; viability, T/C [15]: 13.1%; viability, T/C [16]: 13.7%; viability, T/C [17]: 4.32%; viability, T/C [18]: 5.26%; viability, T/C [21]: 10.5%; viability, T/C [22]: 7.23%; viability, T/C [23]: 1.37%; viability, T/C [24]: 0.49%; viability, T/C [27]: 0.12%; viability, T/C [28]: 0.09%; viability, T/C [29]: 0.09%; viability, T/C [30]: 0.19%
Cn1ncnc1[C@H]1c2n[nH]c(=O)c3cc(F)cc(c23)N[C@@H]1c1ccc(F)cc1 + C=CC(=O)N1CCN(c2nc(OCC3CCCN3C)nc3c2CCN(c2cccc4cccc(C)c24)C3)CC1CC#N | < 0.316 | < 0.316 | < 0.316 | < 0.316 | < 0.316 | 17.4 | 17.5 |  |  |  |  | 17.3 | 15.8 |  | 16 | 17.1 | 15.5 | 14.2 | 0.16 | 0.23 | viability, T/C (second compound 0.0316 µM, first compound 0.000316 µM): 24.6%; viability, T/C (second compound 0.0316 µM, first compound 0.001 µM): 23.2%; viability, T/C (second compound 0.0316 µM, first compound 0.00316 µM): 19.4%; viability, T/C (second compound 0.0316 µM, first compound 0.01 µM): 19.7%; viability, T/C (second compound 0.1 µM, first compound 0.000316 µM): 18.3%; viability, T/C (second compound 0.1 µM, first compound 0.001 µM): 18.2%; viability, T/C (second compound 0.1 µM, first compound 0.00316 µM): 19.9%; viability, T/C (second compound 0.1 µM, first compound 0.01 µM): 17.6%; viability, T/C (second compound 0.316 µM, first compound 0.000316 µM): 18.2%; viability, T/C (second compound 0.316 µM, first compound 0.001 µM): 18.9%; viability, T/C (second compound 0.316 µM, first compound 0.00316 µM): 17.9%; viability, T/C (second compound 0.316 µM, first compound 0.01 µM): 16.2%; viability, T/C (second compound 1 µM, first compound 0.000316 µM): 17.6%; viability, T/C (second compound 1 µM, first compound 0.001 µM): 17.5%; viability, T/C (second compound 1 µM, first compound 0.00316 µM): 13.5%; viability, T/C (second compound 1 µM, first compound 0.01 µM): 18.3%; viability, T/C (second compound 3.16 µM, first compound 0.000316 µM): 0.11%; viability, T/C (second compound 3.16 µM, first compound 0.001 µM): 0.2%; viability, T/C (second compound 3.16 µM, first compound 0.00316 µM): 0.09%; viability, T/C (second compound 3.16 µM, first compound 0.01 µM): 0.11%

— PubChem BioAssay AID1963862 (Molecular Pharmacology Branch, DTP, NCI, 2024)
